For data set [1], the target named is T1, GABAA-receptors (α1-GFP + β2 + γ2Long) expressed in CHO cells (Homo sapiens, UniProt P14867+P47870).
T1 construct: expressed in transfected cells; host or cells: CHO-K1 (ATCC), transient transfection with Lipofectamine 2000
Kind of data set: Whole-cell patch-clamp recordings with fast perfusion on CHO cells transiently expressing GABAA-receptors. Format: cell-based. Conditions: for changes in the current: application of 10 mM. The method, then:
(§1) The investigations in this study were performed by using a standard ^36Cl^−-flux assay in mouse brain synaptoneurosomes. […] Moreover, ^36Cl^−-flux assays were carried out by using a 15 s incubation time. […] The activity of synthesized compounds was tested by using CHO cells transiently expressing GABAA-receptors in the configuration (α1-GFP + β2 + γ2Long). To analyze the functional properties of the compounds, we performed monitoring of ionic currents using whole-cell patch-clamp techniques. […] Then we applied different concentrations of the studied compounds and estimated the minimal concentration that induced currents and, if possible, their EC50.
Cell culture and transient transfection
Chinese Hamster Ovary (CHO-K1) cells were obtained from the American Type Culture Collection (ATCC, Molsheim, France) and maintained as previously described. One day before the transfection, cells were plated on the coverslips (12–14 mm in diameter), which were placed inside 35 mm cell culture dishes with 2 mL of medium. CHO cells were transfected with a total 3 µg cDNA of α1-GFP + β2 + γ2Long (ratio 1:1:1) using the Lipofectamine 2000 transfection protocol (Life Technology, USA). Three hours after the initial exposure of the cells to the cDNAs, a fresh […] solution replaced the old one.
Electrophysiological recordings were performed from fluorescent cells 48–72 hours after […]
Electrophysiological recordings
Whole-cell recordings were conducted on CHO-K1 cells at room temperature (20–25 °C) using an EPC-9 amplifier (HEKA Elektronik, Germany). Cells were continuously superfused with external solution containing (mM): NaCl 140, CaCl2 2, KCl 2.8, MgCl2 1, HEPES 20, glucose 10; pH 7.3; 320–330 mOsm. The patch pipette solution contained (mM): CsCl 140, MgCl2 2, MgATP 2, NaGTP 0.4, HEPES/CsOH 10, BAPTA/KOH 20; pH 7.3; 290 mOsm.
Pipettes were pulled from borosilicate glass capillaries (Harvard Apparatus Ltd, USA) and had resistances of 5–8 MΩ.
For rapid replacement of solutions, a system of two parallel rectangular tubes, 100 µm in diameter, located at a distance of 40–50 µm from the tested cell, was used. The movement of tubes was controlled by a computer-driven fast exchange system (SF 77A Perfusion Fast-Step, Warner, USA). As measured by open tip electrode controls (1/10 NaCl), in this system a 20–80% solution exchange time was within 2–3 ms. Cells with a low input resistance (<150 MΩ) were excluded from analysis.
For quantitative estimations of agonist action, dose-response relationships were fitted by the […]
I = Imax / (1 + (EC50/ [C])n) where I is the current amplitude induced by the agonist at concentration [C], Imax is the maximum response of the cell, n is the Hill coefficient and EC50 is the concentration for which a half-maximum response is induced. Concentration-response relationships were constructed using at least four points. […]
On the technique in general: In patch-clamp work, channel activity is measured electrically.

The subject of data set [2] is GABAA-receptors. The arrangement: method as in PMID 12113824. The following applies: cited from earlier work; for agonist character on GABAA-channels: chloride-flux assays on synaptoneurosomes.
Data set [3] has as its system GABAA-receptors. As to the kind of experiment: Standard 36Cl−-flux assay in mouse brain synaptoneurosomes (Carlier et al.). Format: cell-based. Conditions: ratio of the EC50 values of ref 13. The procedure: as §1
[4] abbreviates: whole-cell currents, mean ± error over x tested cells, read-out: EC50, mean.

Where “and” joins values, the source holds several entries; their conditions need not be identical. Equal entries are not always repeated. Entries after “also recorded” stand apart in the source; their conditions may differ. Where two headings read alike, the source gives them in different places.

T1 sequence (P14867 28-456): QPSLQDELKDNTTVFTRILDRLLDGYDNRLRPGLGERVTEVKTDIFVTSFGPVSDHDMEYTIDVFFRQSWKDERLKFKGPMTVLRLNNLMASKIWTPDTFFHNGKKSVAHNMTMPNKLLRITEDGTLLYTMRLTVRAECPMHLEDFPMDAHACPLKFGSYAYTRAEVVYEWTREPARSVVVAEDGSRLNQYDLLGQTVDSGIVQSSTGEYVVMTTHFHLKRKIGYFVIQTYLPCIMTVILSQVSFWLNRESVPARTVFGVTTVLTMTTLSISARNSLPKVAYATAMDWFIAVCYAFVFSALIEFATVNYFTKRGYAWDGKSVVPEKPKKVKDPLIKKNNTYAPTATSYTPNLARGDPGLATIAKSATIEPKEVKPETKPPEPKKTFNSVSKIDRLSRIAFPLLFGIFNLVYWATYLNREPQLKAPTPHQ
T1 sequence (P47870 25-512 limits assumed): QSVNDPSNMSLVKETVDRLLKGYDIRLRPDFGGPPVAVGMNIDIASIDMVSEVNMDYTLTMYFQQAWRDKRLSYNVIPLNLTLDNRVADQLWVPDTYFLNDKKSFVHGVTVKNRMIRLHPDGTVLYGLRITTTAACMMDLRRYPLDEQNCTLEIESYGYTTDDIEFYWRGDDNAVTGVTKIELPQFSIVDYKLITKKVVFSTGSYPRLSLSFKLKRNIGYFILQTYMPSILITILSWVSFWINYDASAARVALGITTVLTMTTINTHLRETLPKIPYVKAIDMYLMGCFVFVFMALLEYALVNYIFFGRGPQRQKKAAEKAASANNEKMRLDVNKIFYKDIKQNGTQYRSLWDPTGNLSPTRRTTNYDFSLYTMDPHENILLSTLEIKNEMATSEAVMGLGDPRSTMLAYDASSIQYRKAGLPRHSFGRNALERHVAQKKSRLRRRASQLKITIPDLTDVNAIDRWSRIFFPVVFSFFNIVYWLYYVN
T1 sequence (P18507 40-475 partner): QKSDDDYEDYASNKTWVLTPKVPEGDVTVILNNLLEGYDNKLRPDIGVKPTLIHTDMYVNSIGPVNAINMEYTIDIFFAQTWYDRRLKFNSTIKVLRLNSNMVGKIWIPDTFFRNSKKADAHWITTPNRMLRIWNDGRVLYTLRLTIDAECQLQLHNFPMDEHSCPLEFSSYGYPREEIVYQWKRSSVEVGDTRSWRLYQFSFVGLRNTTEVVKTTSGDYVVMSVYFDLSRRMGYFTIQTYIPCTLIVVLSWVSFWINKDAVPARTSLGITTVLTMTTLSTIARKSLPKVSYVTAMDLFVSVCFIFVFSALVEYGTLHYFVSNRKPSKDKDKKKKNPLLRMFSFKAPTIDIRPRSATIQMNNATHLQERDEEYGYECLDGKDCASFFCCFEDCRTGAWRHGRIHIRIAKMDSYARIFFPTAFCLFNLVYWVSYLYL

Take `Cl.Cl.NCCCC(=O)NCc1ccc(CN)cc1`: the melting point (in general, the temperature of the solid-liquid transition) lay within 251 to 253 °C.
Regarding `NCCCC(=O)NCCCCNC(=O)CCCN` [4a], the “changes in the current” value in data set [1] (x = 4) was 0 pA. For the same compound, the “agonist character on GABAA-channels” value with GABAA-receptors [2] is “partial, full or superagonists”.
As for `NCCCC(=O)NCCCCCCNC(=O)CCCN` [4b], in data set [1] (x = 4), the “changes in the current” value stood at 0 pA. Also, the “EC50 fold higher than for GABA” value in the data set with GABAA-receptors [3] is “more than 30 fold”. The EC50 on GABAA-receptors [2] (36Cl−-flux, mouse brain synaptoneurosomes, 15 s incubation, read-out: EC50 (Cl− uptake)) is 0.733 mM. Also, the “maximum Cl− uptake higher than that achieved by GABA” value with GABAA-receptors [2] (36Cl−-flux, mouse brain synaptoneurosomes) is “about 50%”. The “agonist character on GABAA-channels” value with GABAA-receptors [2] is “superagonist; also recorded: partial, full or superagonists”.
Turning to `NCCCC(=O)NCCCCCCCCNC(=O)CCCN` [4c], the “induction of whole-cell currents” value in data set [1] (concentration of 15 mM) is on record as “not able to induce currents”. For the same compound, the “agonist character on GABAA-channels” value with GABAA-receptors [2] is recorded as “partial, full or superagonists”.
In turn, `Cl.Cl.NCCCC(=O)NCCN` [7a] displayed a melting point of 144 to 146 °C. The current amplitude in data set [1] (at 2.6 mM, x = 4) is listed as 10–30 pA. Also, in the data set on GABAA-receptors [2], the “agonist character on GABAA-channels” value is on record as “partial, full or superagonists”.
The compound `Cl.Cl.NCCCNC(=O)CCCN` [7b] returned a melting point of 140 to 142 °C. For the same compound, the “currents induced compared with GABA” value in data set [1] (at concentrations of 10 mM) was “comparable to those for GABA 30–100 µM”. In addition, in data set [1] (setting [4]), the EC50 stood at 1.08 ± 0.14 mM.
As for `NCCCCNC(=O)CCCN` [7c], the EC50 in data set [1] (setting [4]) came to 1.75 ± 0.33 mM. The “agonist character on GABAA-channels” value with GABAA-receptors [2] is “partial, full or superagonists”.
As to `Cl.Cl.NCCCCCCNC(=O)CCCN` [7d], the melting point is 147 to 150 °C. For the same compound, the activation threshold entry in data set [1] is “about 100 µM”. Further, in data set [1] (example concentration-response curve (Figures 2B, 5C), read-out: EC50 from the concentration dependence shown in the figure), the EC50 is ~5 mM and 5.1 mM. Further, in data set [1] (setting [4]), the EC50 is 5.25 ± 0.56 mM.
Compound `Cl.Cl.NCCCCCCCCNC(=O)CCCN` [7e] returned a melting point of 136 to 138 °C. In addition, the current amplitude in data set [1] (at 5 mM, x = 3) was 10–20 pA.

The values are drawn from article PMC3596083 (Beilstein Journal of Organic Chemistry, 2013).
